Data set [1] deals with HEK293. The experiment in a line: Cytotoxicity against HEK293 cells at 20 uM by MTT assay. It counts as cell-based. The settings on record: human, hek293, 20 µM. (Tetrazolium assays rely on reduction of a dye to a coloured formazan, in cell work by metabolically active cells.)
The test system of data set [2] is THP-1. The data set is described as follows: Cytotoxicity against human THP1 cells at 20 uM by MTT assay. It counts as functional, cell-based.
In data set [3] the test system is THP-1. The data set is described as follows: Inhibition of MMP9 secretion in PMA-stimulated human THP1 cells at 20 uM. It counts as functional, cell-based.
A short description of data set [4]: Inhibition of NF-kappaB-mediated transcriptional activity transfected in PMA-stimulated HEK293 cells after 24 hrs by luciferase reporter gene assay. It counts as cell-based. The settings on record: HEK293, 24 h. In general terms: Reporter assays use an easily measured gene product as a stand-in for the process of interest.
In data set [5] the test system is HEK293. The data set is described as follows: Inhibition of MMP9 gene transcription in PMA-stimulated HEK293 cells after 24 hrs by luciferase reporter gene assay. The settings on record: Homo sapiens, HEK293, 24 h. The class given is functional, cell-based.

The source made the active and inactive calls. No cut-off for these calls is given here.

Broadly, the IC50 is the concentration that inhibits the measured activity by half. The low end stands for inhibition by little substance, the high end for a need for much substance. For `C=C1C(=O)O[C@H]2[C@@H]3[C@@H](CC[C@@]3(C)O)C(=C)CC[C@@H]12`, the Activity entry in the data set on HEK293 [1] is “Non-toxic”; in the data set on THP-1 [2] it was “Not toxic”. In addition, in the data set with THP-1 [3], the outcome was Active. Besides, the IC50 was 8.8 µM in data set [4] and 6.6 µM with HEK293 [5].
Turning to `C=C1C(=O)O[C@@H]2[C@@H](O)[C@]3(C)CC[C@H]3[C@](C)(O)CC[C@@H]12`, the Activity result in the data set on HEK293 [1] was “Non-toxic”; with THP-1 [2], “Not toxic”. Further, the IC50 was 2.8 µM in data set [4] and 3.8 µM with HEK293 [5].
As for `C=C1C(=O)O[C@H]2[C@H]1CC/C(C)=C\CC[C@@]1(C)O[C@@H]21`, the values for the Activity entry in the data set with HEK293 [1] and in the data set with THP-1 [2] were “Non-toxic” and “Not toxic”, respectively. In the data set on THP-1 [3], the outcome was Active. The IC50 in data set [4] turned out to be 7.4 µM; with HEK293 [5], 8.5 µM.
Turning to `C=C1C(=O)O[C@@H]2C3O[C@]3(C)CC/C=C(\C)CC[C@@H]12` (stereo partly drawn), the Activity entry is “Non-toxic” in the data set with HEK293 [1] and “Not toxic” in the data set with THP-1 [2]. In addition, the outcome with THP-1 [3] was Active. For the same compound, the IC50 was found to be 9.76 µM in data set [4] and 6.6 µM in the data set on HEK293 [5].
As for `C=C1C(=O)O[C@H]2[C@@H]3[C@@H](CC[C@@]3(C)O)[C@](C)(OC)CC[C@@H]12`, the figures for the Activity entry in the data set on HEK293 [1] and in the data set with THP-1 [2] were “Non-toxic” and “Not toxic”, respectively. Also, the result in the data set on THP-1 [3] was Active. Besides, the IC50 in data set [4] amounted to 6 µM; in the data set on HEK293 [5], 8.6 µM.
On to `C=C1C(=O)O[C@@H]2[C@@H](O)[C@]3(C)CC[C@H]3[C@](C)(OC)CC[C@@H]12`, for which the Activity entry with HEK293 [1] is “Non-toxic”; in the data set with THP-1 [2], “Not toxic”. The IC50 in data set [4] is 2.04 µM; with HEK293 [5], 3.2 µM.

The record behind these values is ChEMBL document CHEMBL1153356, “Inhibition of NF-kB and metalloproteinase-9 expression and secretion by parthenolide derivatives” (Bioorg Med Chem Lett, 2009).
